In patent publication US20070128217A1 (priority 2003, published 2007):

What was measured:
[1] = system: rabbit serum obtained by immunizing a rabbit with the SARS-CoV strain Frankfurt 1; assay type: binding; design: Binding of a rabbit serum to linear peptides / Binding of a rabbit serum to looped peptides / Rabbit serum linear peptides / Rabbit serum looped peptides / Binding of a rabbit serum to linear peptides of protein N of SARS-CoV Urbani (Rabbit serum linear peptides) / Binding of a rabbit serum to looped/cyclic peptides of protein N of SARS-CoV Urbani (Rabbit serum looped peptides): unit not given here
[2] = system: control sera (pooled serum of ten healthy LUMC hospital workers; commercial negative donor pooled serum from the Dutch bloodbank); assay type: binding, human; design: Binding of Control serum LUMC to linear peptides / Binding of Control serum Blood-bank to linear peptides / Binding of Control serum LUMC to looped peptides / Binding of Control Serum Blood-Bank to Looped peptides / Binding of Control serum LUMC to linear peptides of the protein M of SARS-CoV Urbani / Binding of Control serum Blood-bank to linear peptides of the protein M of SARS-CoV Urbani / Binding of Control serum LUMC to looped peptides of the protein M of SARS-CoV Urbani / Binding of Control Serum Blood-Bank to Looped peptides of the protein M of SARS-CoV Urbani: unit not given here
[3] = system: antibodies in sera from SARS patients (sera 1a, 1b, 2, 6, 37, 62, London, SARS-yellow, SARS-green); assay type: binding, human; design: Binding of serum 6 to linear peptides of protein X1 of SARS-CoV Urbani / Binding of serum 37 to linear peptides of protein X1 of SARS-CoV Urbani / Binding of serum 6 to looped/cyclic peptide (PEPSCAN-ELISA) / Binding of serum 37 to looped/cyclic peptide (PEPSCAN-ELISA) / Binding of serum 37 to looped/cyclic peptides of protein X1 of SARS-CoV Urbani / Binding of serum 6 to linear peptides of protein X2 / Binding of serum 37 to linear peptides of protein X2 / Binding of serum 37 to looped/cyclic peptides of protein X2 of SARS-CoV Urbani / Binding of serum 6 to linear peptides of protein M of SARS-CoV Urbani / Binding of serum 37 to linear peptides of protein M of SARS-CoV Urbani / Binding of serum 6 to looped/cyclic peptides of protein M of SARS-CoV Urbani / Binding of serum 37 to looped/cyclic peptides of protein M of SARS-CoV Urbani / Binding of serum 6 to linear peptides of protein X3 of SARS-CoV Urbani / Binding of serum 37 to linear peptides of protein X3 of SARS-CoV Urbani / Binding of serum 37 to looped/cyclic peptides of protein X3 of SARS-CoV Urbani / Binding of serum 6 to linear peptides of protein X4 of SARS-CoV Urbani / Binding of serum 37 to linear peptides of protein X4 of SARS-CoV Urbani / Binding of serum 37 to looped/cyclic peptides of protein X4 of SARS-CoV Urbani / Binding of serum 6 to linear peptides of protein X5 of SARS-CoV Urbani / Binding of serum 37 to linear peptides of protein X5 of SARS-CoV Urbani / Binding of serum 37 to looped/cyclic peptides of protein X5 of SARS-CoV Urbani / Binding of serum 6 to linear peptides of protein N of SARS-CoV Urbani / Binding of serum 37 to linear peptides of protein N of SARS-CoV Urbani / Binding of serum 6 to linear peptide (PEPSCAN-ELISA) / Binding of serum 1a to looped/cyclic peptides of protein N of SARS-CoV Urbani / Binding of serum 1b to looped/cyclic peptides of protein N of SARS-CoV Urbani / Binding of serum 2 to looped/cyclic peptides of protein N of SARS-CoV Urbani / Binding of serum 6 to looped/cyclic peptides of protein N of SARS-CoV Urbani / Binding of serum 37 to looped/cyclic peptides of protein N of SARS-CoV Urbani / Binding of serum 62 to looped/cyclic peptides of protein N of SARS-CoV Urbani / Binding of serum London to looped/cyclic peptides of protein N of SARS-CoV Urbani / Binding of serum SARS-green to looped/cyclic peptides of protein N of SARS-CoV Urbani: unit not given here

In the case of GGALIARCWYLHEGH, the “Rabbit serum linear peptides” value [1] was 0.5, the “Rabbit serum looped peptides” value [1] was 0.5 and the “Binding of Control Serum Blood-Bank to Looped peptides” value [2] was 0.6. The “Binding of Control serum Blood-bank to linear peptides” value [2] was 0.5, the “Binding of Control serum LUMC to linear peptides” value [2] was 0.4 and the “Binding of Control serum LUMC to looped peptides” value [2] was 0.6. For the same sequence, the “Binding of serum 1a to linear peptides of protein X5 of SARS-CoV Urbani” value [3] was 0.8, the “Binding of serum 1a to looped/cyclic peptides of protein X5 of SARS-CoV Urbani” value [3] was 0.7 and the “Binding of serum 1b to linear peptides of protein X5 of SARS-CoV Urbani” value [3] was 0.7. For the same sequence, the “Binding of serum 1b to looped/cyclic peptides of protein X5 of SARS-CoV Urbani” value [3] was 0.6, the “Binding of serum 2 to linear peptides of protein X5 of SARS-CoV Urbani” value [3] was 0.6 and the “Binding of serum 2 to looped/cyclic peptides of protein X5 of SARS-CoV Urbani” value [3] was 0.6. The “Binding of serum 6 to linear peptides of protein X5 of SARS-CoV Urbani” value [3] was 0.8, the “Binding of serum 6 to looped/cyclic peptides of protein X5 of SARS-CoV Urbani” value [3] was 0.4 and the “Binding of serum 37 to linear peptides of protein X5 of SARS-CoV Urbani” value [3] was 0.7. The “Binding of serum 37 to looped/cyclic peptides of protein X5 of SARS-CoV Urbani” value [3] was 0.7, the “Binding of serum 62 to linear peptides of protein X5 of SARS-CoV Urbani” value [3] was 0.8 and the “Binding of serum 62 to looped/cyclic peptides of protein X5 of SARS-CoV Urbani” value [3] was 0.7. For the same sequence, the “Binding of serum London to linear peptides of protein X5 of SARS-CoV Urbani” value [3] was 0.7, the “Binding of serum London to looped/cyclic peptides of protein X5 of SARS-CoV Urbani” value [3] was 0.3 and the “Binding of serum SARS-green to linear peptides of protein X5 of SARS-CoV Urbani” value [3] was 0.7. For the same sequence, the “Binding of serum SARS-green to looped/cyclic peptides of protein X5 of SARS-CoV Urbani” value [3] was 0.7, the “Binding of serum SARS-yellow to linear peptides of protein X5 of SARS-CoV Urbani” value [3] was 0.3 and the “Binding of serum SARS-yellow to looped/cyclic peptides of protein X5 of SARS-CoV Urbani” value [3] was 0.3.
With GIENATFFIFNKLVK the “Binding of a rabbit serum to linear peptides” value [1] was 0.1, the “Binding of a rabbit serum to looped peptides” value [1] was 0.6 and the “Binding of Control Serum Blood-Bank to Looped peptides” value [2] was 0.5. The “Binding of Control serum Blood-bank to linear peptides” value [2] was 0.6, the “Binding of Control serum LUMC to linear peptides” value [2] was 0.5 and the “Binding of Control serum LUMC to looped peptides” value [2] was 0.5. The “Binding of serum 1a to linear peptides of protein X1 of SARS-CoV Urbani” value [3] was 0.6, the “Binding of serum 1a to looped/cyclic peptides of protein X1 of SARS-CoV Urbani” value [3] was 0.6 and the “Binding of serum 1b to linear peptides of protein X1 of SARS-CoV Urbani” value [3] was 0.5. The “Binding of serum 1b to looped/cyclic peptides of protein X1 of SARS-CoV Urbani” value [3] was 0.4, the “Binding of serum 2 to linear peptides of protein X1 of SARS-CoV Urbani” value [3] was 0.5 and the “Binding of serum 2 to looped/cyclic peptides of protein X1 of SARS-CoV Urbani” value [3] was 0.5. The “Binding of serum 6 to linear peptides of protein X1 of SARS-CoV Urbani” value [3] was 0.5, the “Binding of serum 6 to looped/cyclic peptides of protein X1 of SARS-CoV Urbani” value [3] was 0.5 and the “Binding of serum 37 to linear peptides of protein X1 of SARS-CoV Urbani” value [3] was 0.6. For the same sequence, the “Binding of serum 37 to looped/cyclic peptides of protein X1 of SARS-CoV Urbani” value [3] was 0.6, the “Binding of serum 62 to linear peptides of protein X1 of SARS-CoV Urbani” value [3] was 0.6 and the “Binding of serum 62 to looped/cyclic peptides of protein X1 of SARS-CoV Urbani” value [3] was 0.6. For the same sequence, the “Binding of serum London to linear peptides of protein X1 of SARS-CoV Urbani” value [3] was 0.3, the “Binding of serum London to looped/cyclic peptides of protein X1 of SARS-CoV Urbani” value [3] was 0.2 and the “Binding of serum SARS-green to linear peptides of protein X1 of SARS-CoV Urbani” value [3] was 0.2. The “Binding of serum SARS-green to looped/cyclic peptides of protein X1 of SARS-CoV Urbani” value [3] was 0.2, the “Binding of serum SARS-yellow to linear peptides of protein X1 of SARS-CoV Urbani” value [3] was 0.5 and the “Binding of serum SARS-yellow to looped/cyclic peptides of protein X1 of SARS-CoV Urbani” value [3] was 0.5.
